Measurements published in paper PMC9956870, “Exploring functional and structural features of chemically related natural prenylated hydroquinone and benzoic acid from Piper crassinervium (Piperaceae) on bacterial peroxiredoxin inhibition” (PLOS ONE, 2023).

Experiments:
[1] = target: T1, alkyl hydroperoxide reductase C (SeAhpC) (Staphylococcus epidermidis, UniProt Q8CMQ2); assay: NADPH-coupled peroxidase assay; assay type: biochemical
T1 construct: gene ahpC
T1 sequence (Q8CMQ2 1-189): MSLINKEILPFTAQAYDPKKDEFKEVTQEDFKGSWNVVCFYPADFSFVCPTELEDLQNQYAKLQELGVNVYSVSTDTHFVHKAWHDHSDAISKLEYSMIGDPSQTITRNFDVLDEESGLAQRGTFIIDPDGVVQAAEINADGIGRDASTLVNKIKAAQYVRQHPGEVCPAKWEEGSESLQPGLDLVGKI

[2] = target: T2, Prx2 (HsPrx2) (Homo sapiens, UniProt P32119); assay: NADPH-coupled peroxidase assay (yeast Trx system); assay type: biochemical
T2 construct: gene PRDX2
T2 sequence (P32119 2-198): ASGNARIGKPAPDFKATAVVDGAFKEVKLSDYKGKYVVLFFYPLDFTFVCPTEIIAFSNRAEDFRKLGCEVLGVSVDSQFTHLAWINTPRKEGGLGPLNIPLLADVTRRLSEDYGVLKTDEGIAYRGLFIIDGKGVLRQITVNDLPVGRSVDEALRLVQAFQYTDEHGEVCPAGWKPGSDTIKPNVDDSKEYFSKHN

CCN1C(=O)C=CC1=O [NEM, N-ethylmaleimide]
NADPH-coupled peroxidase assay [1]: As expected for the samples subjected to NEM treatment, no peroxidase activity was detected to both enzymes | peroxidase initial rate [2]: 0.02 ± 0.01 μMs^-1 (v0; untreated 0.62 ± 0.03)
